Source: US20240050512A1, “REDUCTION OF VIRAL INFECTIONS” (priority 2020, published 2024)

Biological target: T1, cathepsin L protease (Homo sapiens, UniProt P07711)
T1 construct: purchased BPS Bioscience
Experiment: Protease inhibition, cell-free fluorogenic kit (BPS Bioscience)
Type: biochemical

T1 sequence (P07711 114-333): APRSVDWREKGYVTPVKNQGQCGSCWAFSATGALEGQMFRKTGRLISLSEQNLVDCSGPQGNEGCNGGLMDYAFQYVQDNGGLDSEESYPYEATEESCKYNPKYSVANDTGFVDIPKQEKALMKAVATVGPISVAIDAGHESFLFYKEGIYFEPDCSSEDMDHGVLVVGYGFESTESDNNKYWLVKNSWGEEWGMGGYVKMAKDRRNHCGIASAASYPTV

SMILES: CC(C)C[C@H](NC(=O)[C@H]1O[C@@H]1C(=O)O)C(=O)NCCCCN=C(N)N [Composition E-64, E-64]
- Percentage inhibition (0.0001 μM): −15.5%
- Percentage inhibition (0.001 μM): −1.1 ^ %
